What was measured:
[1] = test system: rodent; conditions: in vivo; cited from earlier work
[2] = test system: liver; conditions: in vivo; cited from earlier work
[3] = test system: mRNA expressed from the genes (A) to (D) in rat liver; experiment: Behavior of genes (mRNA expression level, oligo-DNA microarray) in rat liver after 28-day oral administration; assay type: in vivo
How it was run: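 Rat liver RNA after 28 days of daily gavage dosing (male F344, 5 weeks old, four per group). A change reaching 1.5-fold, or 1/1.5, against solvent control scores as significant; opposite direction versus another carcinogen scores as not significant.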

[4] = (C), Unigene Rn.120914, defined direction +, rat liver, oral once daily 28 days

c1ccc2ncccc2c1 [TS006, Quinoline]
Carcinogenicity [1]: C+ | Liver carcinogenicity [2]: Cr+ | Behavior of gene caused by administration of chemical substance, Gene No. 4846 ([3]; (A), Unigene Rn.144554, defined direction +, rat liver, oral once daily 28 days): + | Behavior of gene caused by administration of chemical substance, Gene No. 4218 ([3]; (A), Unigene Rn.167075, defined direction +, rat liver, oral once daily 28 days, significant = 1.5 times or more or 1/1.5 or less of control): − | Behavior of gene caused by administration of chemical substance, Gene No. 2026 ([3]; (A), Unigene Rn.167075, defined direction −, rat liver, oral once daily 28 days): + | Behavior of gene caused by administration of chemical substance, Gene No. 6182 ([3]; (A), Unigene Rn.5834, defined direction +, rat liver, oral once daily 28 days): − | Behavior of gene caused by administration of chemical substance, Gene No. 5600 ([3]; (A), Unigene Rn.9836, defined direction +, rat liver, oral once daily 28 days): − | Behavior of gene caused by administration of chemical substance, Gene No. 1494 ([3]; (B), Unigene Rn.1430, defined direction −, rat liver, oral once daily 28 days): + | Behavior of gene caused by administration of chemical substance, Gene No. 2045 ([3]; (B), Unigene Rn.19329, defined direction +, rat liver, oral once daily 28 days): − | Behavior of gene caused by administration of chemical substance, Gene No. 2203 ([3]; (B), Unigene Rn.21240, defined direction +, rat liver, oral once daily 28 days): − | Behavior of gene caused by administration of chemical substance, Gene No. 533 ([3]; (C), Unigene Rn.106184, defined direction +, rat liver, oral once daily 28 days): − | Behavior of gene caused by administration of chemical substance, Gene No. 725 ([3]; (C), Unigene Rn.108075, defined direction −, rat liver, oral once daily 28 days): − | Behavior of gene caused by administration of chemical substance, Gene No. 1163 ([3]; (C), Unigene Rn.11766, defined direction +, rat liver, oral once daily 28 days): − | Behavior of gene caused by administration of chemical substance, Gene No. 4973 ([3]; (C), Unigene Rn.118529, defined direction −, rat liver, oral once daily 28 days): − | Behavior of gene caused by administration of chemical substance, Gene No. 4095 ([3]; (C), Unigene Rn.119024, defined direction −, rat liver, oral once daily 28 days): − | Behavior of gene caused by administration of chemical substance, Gene No. 1334 [3, 4]: − | Behavior of gene caused by administration of chemical substance, Gene No. 6620 [3, 4]: − | Behavior of gene caused by administration of chemical substance, Gene No. 6303 ([3]; (C), Unigene Rn.123063, defined direction −, rat liver, oral once daily 28 days): − | Behavior of gene caused by administration of chemical substance, Gene No. 5878 ([3]; (C), Unigene Rn.143213, defined direction −, rat liver, oral once daily 28 days): − | Behavior of gene caused by administration of chemical substance, Gene No. 1131 ([3]; (C), Unigene Rn.144946, defined direction −, rat liver, oral once daily 28 days): − | Behavior of gene caused by administration of chemical substance, Gene No. 1562 ([3]; (C), Unigene Rn.14744, defined direction −, rat liver, oral once daily 28 days): − | Behavior of gene caused by administration of chemical substance, Gene No. 1741 ([3]; (C), Unigene Rn.1647, defined direction −, rat liver, oral once daily 28 days): − | Behavior of gene caused by administration of chemical substance, Gene No. 893 ([3]; (C), Unigene Rn.164817, defined direction +, rat liver, oral once daily 28 days): − | Behavior of gene caused by administration of chemical substance, Gene No. 6026 ([3]; (C), Unigene Rn.167685, defined direction −, rat liver, oral once daily 28 days): − | Behavior of gene caused by administration of chemical substance, Gene No. 154 ([3]; (C), Unigene Rn.185941, defined direction −, rat liver, oral once daily 28 days): − | Behavior of gene caused by administration of chemical substance, Gene No. 1993 ([3]; (C), Unigene Rn.18728, defined direction −, rat liver, oral once daily 28 days): − | Behavior of gene caused by administration of chemical substance, Gene No. 813 ([3]; (C), Unigene Rn.201760, defined direction +, rat liver, oral once daily 28 days): + | Behavior of gene caused by administration of chemical substance, Gene No. 2494 ([3]; (C), Unigene Rn.23969, defined direction +, rat liver, oral once daily 28 days): − | Behavior of gene caused by administration of chemical substance, Gene No. 2546 ([3]; (C), Unigene Rn.24561, defined direction −, rat liver, oral once daily 28 days): − | Behavior of gene caused by administration of chemical substance, Gene No. 3776 ([3]; (C), Unigene Rn.43232, defined direction −, rat liver, oral once daily 28 days): − | Behavior of gene caused by administration of chemical substance, Gene No. 3929 ([3]; (C), Unigene Rn.4620, defined direction +, rat liver, oral once daily 28 days): − | Behavior of gene caused by administration of chemical substance, Gene No. 1119 ([3]; (C), Unigene Rn.9757, defined direction +, rat liver, oral once daily 28 days): − | Behavior of gene caused by administration of chemical substance, Gene No. 6742 ([3]; (C), Unigene Rn.9779, defined direction +, rat liver, oral once daily 28 days): − | Behavior of gene caused by administration of chemical substance, Gene No. 5634 ([3]; (C), Unigene Rn.9862, defined direction −, rat liver, oral once daily 28 days): − | Behavior of gene caused by administration of chemical substance, Gene No. 5726 ([3]; (D), Unigene Rn.9939, defined direction −, rat liver, oral once daily 28 days): −

Cl[C@H]1[C@H](Cl)[C@@H](Cl)[C@@H](Cl)[C@H](Cl)[C@H]1Cl [TS057, Lindane]
Carcinogenicity [1]: C− | Liver carcinogenicity [2]: Cr− | Behavior of gene caused by administration of chemical substance, Gene No. 154 ([3]; rat, in vivo): − | Behavior of gene caused by administration of chemical substance, Gene No. 533 ([3]; rat, in vivo): + | Behavior of gene caused by administration of chemical substance, Gene No. 725 ([3]; rat, in vivo): − | Behavior of gene caused by administration of chemical substance, Gene No. 813 ([3]; rat, in vivo): − | Behavior of gene caused by administration of chemical substance, Gene No. 893 ([3]; rat, in vivo): − | Behavior of gene caused by administration of chemical substance, Gene No. 1119 ([3]; rat, in vivo): − | Behavior of gene caused by administration of chemical substance, Gene No. 1131 ([3]; rat, in vivo): + | Behavior of gene caused by administration of chemical substance, Gene No. 1163 ([3]; rat, in vivo): − | Behavior of gene caused by administration of chemical substance, Gene No. 1334 ([3]; rat, in vivo): − | Behavior of gene caused by administration of chemical substance, Gene No. 1494 ([3]; rat, in vivo): − | Behavior of gene caused by administration of chemical substance, Gene No. 1562 ([3]; rat, in vivo): − | Behavior of gene caused by administration of chemical substance, Gene No. 1741 ([3]; rat, in vivo): − | Behavior of gene caused by administration of chemical substance, Gene No. 1993 ([3]; rat, in vivo): − | Behavior of gene caused by administration of chemical substance, Gene No. 2026 ([3]; rat, in vivo): − | Behavior of gene caused by administration of chemical substance, Gene No. 2045 ([3]; rat, in vivo): − | Behavior of gene caused by administration of chemical substance, Gene No. 2203 ([3]; rat, in vivo): − | Behavior of gene caused by administration of chemical substance, Gene No. 2494 ([3]; rat, in vivo): − | Behavior of gene caused by administration of chemical substance, Gene No. 2546 ([3]; rat, in vivo): − | Behavior of gene caused by administration of chemical substance, Gene No. 3776 ([3]; rat, in vivo): − | Behavior of gene caused by administration of chemical substance, Gene No. 3929 ([3]; rat, in vivo): − | Behavior of gene caused by administration of chemical substance, Gene No. 4095 ([3]; rat, in vivo): − | Behavior of gene caused by administration of chemical substance, Gene No. 4218 ([3]; rat, in vivo): − | Behavior of gene caused by administration of chemical substance, Gene No. 4846 ([3]; rat, in vivo): − | Behavior of gene caused by administration of chemical substance, Gene No. 4973 ([3]; rat, in vivo): − | Behavior of gene caused by administration of chemical substance, Gene No. 5600 ([3]; rat, in vivo): − | Behavior of gene caused by administration of chemical substance, Gene No. 5634 ([3]; rat, in vivo): − | Behavior of gene caused by administration of chemical substance, Gene No. 5726 ([3]; rat, in vivo): − | Behavior of gene caused by administration of chemical substance, Gene No. 5878 ([3]; rat, in vivo): − | Behavior of gene caused by administration of chemical substance, Gene No. 6026 ([3]; rat, in vivo): + | Behavior of gene caused by administration of chemical substance, Gene No. 6182 ([3]; rat, in vivo): − | Behavior of gene caused by administration of chemical substance, Gene No. 6303 ([3]; rat, in vivo): + | Behavior of gene caused by administration of chemical substance, Gene No. 6620 ([3]; rat, in vivo): − | Behavior of gene caused by administration of chemical substance, Gene No. 6742 ([3]; rat, in vivo): −
